Here are results for two compounds from patent publication US11226337B2, “Chemoproteomic profiling of protein electrophilic and oxidative post-translational modifications” (Zenagem, LLC, priority 2017, dated 2022).

Holding throughout (test): SILAC RP-ABPP
Holding throughout (format): cell-based

Assay [1] addresses T1, IBA57 Putative transferase CAF17 (Q5T440) (Homo sapiens, UniProt Q5T440).
T1 construct: shared by both the endogenous and recombinant forms of these proteins; endogenous in cells; host or cells: HEK293T and MDA-MB-231
T1 sequence (Q5T440 40-356): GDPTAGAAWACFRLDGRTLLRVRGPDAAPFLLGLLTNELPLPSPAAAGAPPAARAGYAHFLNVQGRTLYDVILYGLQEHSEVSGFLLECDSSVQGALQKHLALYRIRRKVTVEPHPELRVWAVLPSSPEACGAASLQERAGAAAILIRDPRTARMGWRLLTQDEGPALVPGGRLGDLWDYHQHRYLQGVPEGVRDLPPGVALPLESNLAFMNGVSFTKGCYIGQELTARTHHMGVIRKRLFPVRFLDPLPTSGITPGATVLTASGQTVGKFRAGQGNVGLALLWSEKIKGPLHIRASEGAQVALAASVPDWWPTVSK
The conditions noted are these: SILAC H/L, HEK293T.

Assay [2] concerns the target T2, CTSZ Cathepsin Z (Q9UBR2) (Homo sapiens, UniProt Q9UBR2).
T2 construct: In Situ Labelling of Cells with Hydrazine Probes for MS Experiments; endogenous in cells; host or cells: HEK293T and MDA-MB-231
The conditions noted are these: SILAC H/L, MDA-MB-231.

Assay [3] concerns the target T3, NT5DC2 5nucleotidase domaincontaining (Q9H857) (Homo sapiens, UniProt Q9H857).
T3 construct: shared by both the endogenous and recombinant forms of these proteins; endogenous in cells; host or cells: HEK293T and MDA-MB-231
T3 sequence (Q9H857 1-520): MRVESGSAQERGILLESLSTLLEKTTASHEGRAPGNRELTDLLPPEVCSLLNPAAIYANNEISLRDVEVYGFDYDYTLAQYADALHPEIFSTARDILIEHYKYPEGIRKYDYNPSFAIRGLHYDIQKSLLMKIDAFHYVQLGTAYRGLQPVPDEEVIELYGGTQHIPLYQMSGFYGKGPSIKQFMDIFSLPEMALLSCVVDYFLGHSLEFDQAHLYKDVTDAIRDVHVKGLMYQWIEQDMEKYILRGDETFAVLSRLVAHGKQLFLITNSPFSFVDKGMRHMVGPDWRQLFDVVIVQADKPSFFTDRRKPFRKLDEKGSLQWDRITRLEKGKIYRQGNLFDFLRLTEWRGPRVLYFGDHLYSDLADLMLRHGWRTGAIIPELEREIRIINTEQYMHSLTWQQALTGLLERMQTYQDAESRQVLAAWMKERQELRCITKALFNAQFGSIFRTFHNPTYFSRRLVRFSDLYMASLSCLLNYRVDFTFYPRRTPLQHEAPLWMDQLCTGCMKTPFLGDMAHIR
The note with it: SILAC H/L, HEK293T.

The target in assay [4] is T4, ALDOC Fructosebisphosphate aldolase C (P09972) (Homo sapiens, UniProt P09972).
T4 construct: shared by both the endogenous and recombinant forms of these proteins; endogenous in cells; host or cells: HEK293T and MDA-MB-231
T4 sequence (P09972 1-364): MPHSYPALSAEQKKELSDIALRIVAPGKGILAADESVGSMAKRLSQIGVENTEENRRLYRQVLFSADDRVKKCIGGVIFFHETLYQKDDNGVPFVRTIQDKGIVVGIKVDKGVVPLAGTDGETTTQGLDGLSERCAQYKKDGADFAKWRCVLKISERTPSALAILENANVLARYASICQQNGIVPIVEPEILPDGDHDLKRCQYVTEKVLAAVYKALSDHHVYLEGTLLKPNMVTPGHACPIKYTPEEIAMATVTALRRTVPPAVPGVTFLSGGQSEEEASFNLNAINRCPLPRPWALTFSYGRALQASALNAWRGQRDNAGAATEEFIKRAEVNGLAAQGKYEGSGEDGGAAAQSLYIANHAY
The note with it: SILAC H/L, HEK293T. The gist of the method: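 Heavy SILAC HEK293T or MDA-MB-231 cells were treated with hydrazine probe 1 (3 mM, 0.5 h); light cells received non-clickable hydrazine 3 at the same concentration (enrichment) or probe plus 10× competitor 3 (competition). Lysates were mixed, clicked to biotin-azide and analysed by LC-MS; values are median heavy:light peptide ratios averaged over ≥3 replicates.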

T2 sequence (Q9UBR2 62-303): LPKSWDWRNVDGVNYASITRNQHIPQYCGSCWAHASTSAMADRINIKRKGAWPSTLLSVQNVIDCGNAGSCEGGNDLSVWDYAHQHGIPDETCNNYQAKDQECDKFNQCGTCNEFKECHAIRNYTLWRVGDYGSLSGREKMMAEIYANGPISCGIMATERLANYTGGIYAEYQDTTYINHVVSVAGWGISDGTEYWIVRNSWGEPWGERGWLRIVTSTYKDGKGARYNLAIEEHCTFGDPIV

With `C#CCNN.Cl` [probe 1, prop-2-yn-1-ylhydrazine hydrochloride], the enrichment ratioavg in assay [1] (probe 1 3 mM 0.5 h vs probe 3) was 14; in assay [2] (probe 1 3 mM 0.5 h vs probe 3), 13; in assay [3] (probe 1 3 mM 0.5 h vs probe 3) it was 11; in assay [4] (probe 1 3 mM 0.5 h vs probe 3), 16. The competition ratioavg in assay [1] (probe 1 vs probe 1+10x probe 3), in assay [2] (probe 1 vs probe 1+10x probe 3), in assay [3] (probe 1 vs probe 1+10x probe 3) and in assay [4] (probe 1 vs probe 1+10x probe 3) was 3 each time.

For `C#CCCNC(=O)c1ccc(NN)cc1.Cl` [probe 2, N-(but-3-yn-1-yl)-4-hydrazinylbenzamide hydrochloride], the enrichment ratioavg was 9 in assay [1] (probe 2 1 mM 0.5 h vs probe 4), 19 in assay [2] (probe 2 1 mM 0.5 h vs probe 4), 16 in assay [3] (probe 2 1 mM 0.5 h vs probe 4) and 14 in assay [4] (probe 2 1 mM 0.5 h vs probe 4). For the same compound, the competition ratioavg is 4 in assay [1] (probe 2 vs probe 2+10x probe 4), 5 in assay [2] (probe 2 vs probe 2+10x probe 4), 4 in assay [3] (probe 2 vs probe 2+10x probe 4) and 5 in assay [4] (probe 2 vs probe 2+10x probe 4).
